Here are results for 2 compounds from US6486136B1, “Combinations comprising VX478, zidovudine and/or 1592U89 for use in the treatment of HIV” (SmithKline Beecham Corporation, priority 1996, dated 2002).

The assay relates to HIV-1 Strain IIIB. The experiment in a line: Double combination dose response matrices in MT2-cells infected with HIV-1 Strain IIIB (MacSynergy II / Greco analysis). It counts as cell-based. As to conditions: Greco model estimate; for pEC50: MT2-cells, HIV-1 IIIB, medium with 10% fetal bovine serum plus α1 acid glycoprotein (1 mg/ml) and albumin (40 mg/ml). The protocol: Triplicate in vitro dose response matrices were prepared using MT2-cells infected with HIV-1 Strain IIIB. In order to account for the effects of protein binding, tissue culture medium with 10% fetal bovine serum was supplemented with the human serum proteins α1, acid glycoprotein (1 mg/ml) and albumin (40 mg/ml). The 3-D drug interaction surface for 1592U89 and 141W94 was constructed using the program MacSynergy II. As analyzed relative to a Bliss Independence null reference model, this combination was synergistic with volumes of synergy exceeding 100 (99% confidence). Analysis of the data set with a fully parametric form of an equation for the quantitation of drug interaction developed by Greco et al. also indicated synergy. The parameters, with 95% confidence intervals are shown below: EC50 is the half maximal response concentration. “m” is the slope parameter. Alpha is the synergy parameter.

pEC50: −log10 of the molar value. Like-named read-outs stand apart in the source and are kept apart here.

The pEC50 is −log10 of the EC50, conventionally taken in molar units. For the compound `Nc1nc(NC2CC2)c2ncn([C@H]3C=C[C@@H](CO)C3)c2n1` (relative stereo) [1592U89, (1S,4R)-cis-4-[2-amino-6-(cyclopropylamino)-9H-purin-9-yl]-2-cyclopentene-1-methanol], the pEC50 (read-out: EC50,1592u) was 6.20. The “m1592u (slope parameter)” value (same matrix) is listed as 1.60.
In the case of `CC(C)CN(C[C@@H](O)[C@H](Cc1ccccc1)NC(=O)O[C@H]1CCOC1)S(=O)(=O)c1ccc(N)cc1` (relative stereo) [141W94, 3S-[3R*(1R*,2S*)]-[3-[[(4-aminophenyl)sulphonyl](2-methylpropyl)-amino]-2-hydroxy-1-phenylmethyl)propyl]carbamic acid, tetrahydro-3-furanyl ester], the pEC50 (Human immunodeficiency virus 1, read-out: EC50,141w) was 6.40. The “m141w (slope parameter)” value (same matrix) is on record as 2.20.
